Reference: PMC10766854 (Frontiers in Pharmacology, 2023)

Legend:
[1] = Pharmacokinetics and bioequivalence after a single subcutaneous injection, plasma liraglutide by LC-MS/MS; format: in vivo, human; details: single s.c. 0.6 mg, N = 36
Method: This trial was designed as a randomized, open, two-cycle, self-crossover trial. Screening was performed within 28 days prior to dosing, and eligible subjects were admitted to the Phase I Clinical Trial Ward in the afternoon of the first day prior to dosing and fasted for 10 h overnight after dinner. […] A total of 18 subjects received the test formulation in the first cycle, and the other 18 subjects received the reference formulation for administration and were crossover-administered for the second cycle of the study after a 14-day washout period. Drinking water was restricted for 1 h before and 1 h after dosing, water was drunk as needed at all other times, and a standardized nutritious meal was uniformly provided at least 4 h after dosing. The subjects were discharged from the hospital on the third day after dosing. Follow-up examinations were performed 72 h after the last dose of the second cycle.
After collection, the tubes were inverted six times, centrifuged at 4°C, 1,460 g for 10 min, and the plasma was aliquoted and placed it the numbered cryopreservation tube. Plasma samples were stored in a refrigerator at −80°C before analysis.
Waters ACQUITY UPLC (Waters Corporation, United States) and AB Triple Quad 6500+ Mass Spectrometer (SCIEX Technologies, United States) combined with an electrospray ionization source were used for LC-MS/MS analysis. […] The chromatographic separation was performed on a C18 column (Waters) at 60°C with a flow rate of 600 μL/min. The mobile phase A was 0.025% formic acid aqueous solution (v/v), and the mobile phase B was 0.025% formic acid acetonitrile aqueous solution (v/v). The linear range, limit of quantification, accuracy, precision, recovery, selectivity, and stability of the method were verified. […] In the concentration data listings, all missing data are indicated as “-” or NA (not applicable).
The pharmacokinetic parameters, including Tmax, Cmax, AUC0-t, AUC0-∞, t1/2z, AUC_%Extrap, Vz/F, and CLz/F, were calculated using the non-compartmental model of WinNonlin 7.0. Descriptive statistical analysis was performed on PK parameters, and the arithmetic mean, standard deviation, coefficient of variation, maximum, minimum, and geometric mean of each parameter were calculated. If AUC_%Extrap >20%, the subject’s AUC0-∞, t1/2z, Vz/F, and CLz/F were not to be used for descriptive statistical analysis.
Based on the blood concentration data, SAS 9.4 was used for statistical analysis. Cmax, AUC0-t, AUC0-∞, t1/2z, CLz/F, and Vz/F were logarithmically transformed and then analyzed using variance analysis (ANOVA). […] Two one-sided tests were performed for each parameter, and 90% CI of the geometric mean ratio (GMR) of the pharmacokinetic parameters (T/R) was calculated.

[2] = Safety and tolerability assessment (adverse events) in the crossover trial; format: in vivo, human; details: single s.c. 0.6 mg
Method: Subjects receiving the study drug were included in the safety assessment. The safety assessment included physical examination, vital signs (pre-dose and 1, 3, 12, 24, 48, and 72 h after administration of the study drug in the first and second cycles), laboratory tests, 12-lead electrocardiograms (pre-dose and 3, 24, 48, and 72 h after administration of the study drug in the first and second cycles), and blood glucose monitoring. Laboratory safety assessments were completed at the laboratory of Zhongshan Hospital, Fudan University, including routine blood, blood biochemistry, thyroid function, coagulation function, and urine routine tests. All adverse reactions were coded using MedDRA 21.0 terminology and categorized and analyzed according to SOC/PT.

[3] = Stability of analyte solutions and prepared samples, LC-MS/MS method validation; format: physicochemical; details: room temperature
Method: Plasma concentrations of liraglutide were analyzed using a validated, sensitive, and specific liquid chromatography–tandem mass spectrometry (LC-MS/MS) method developed by Shanghai WuXi AppTec New Drug Development Co. (Shanghai, China). Waters ACQUITY UPLC (Waters Corporation, United States) and AB Triple Quad 6500+ Mass Spectrometer (SCIEX Technologies, United States) combined with an electrospray ionization source were used for LC-MS/MS analysis. The internal standard of liraglutide was developed in-house. The chromatographic separation was performed on a C18 column (Waters) at 60°C with a flow rate of 600 μL/min. […] The linear range, limit of quantification, accuracy, precision, recovery, selectivity, and stability of the method were verified. The linear range of the analytical method for the determination of liraglutide in plasma was 1.00–250 ng/mL, and the lower limit of quantification (LLOQ) was 1.00 ng/mL. […] The analyte recoveries were determined using three gradients, high, medium, and low, with mean values of 48.0%, 47.6%, and 57.8%, respectively, corresponding to CVs of less than 8% and 57.3 for IS, corresponding to a CV of 5.1%. […] During analysis, plasma concentrations of liraglutide below the limit of quantification were listed as zero and missing values in PK samples before and after Tmax, respectively. […]

[4] = ref US Food and Drug Administration, 2017, cited from earlier work
Method: The lower dose on the steeper portion of the exposure–effect curve in healthy subjects was chosen to assess the difference between the subject drug and the reference drug ([CDER, 2014]), and therefore, 0.6 mg was selected as the dose to be administered in this comparative trial.

[5] = ref US Food and Drug Administration, 2017, cited from earlier work; remark: listed apart in the source
Method: In five double-blind clinical trials of 26 weeks or longer, the incidence of gastrointestinal adverse reactions in patients was reported to be 41% in the liraglutide treatment group and was dose-related ([US Food and Drug Administration, 2017]). This is consistent with the pharmacodynamic profile of GLP-1R agonist-related drugs. […] In five clinical trials of 26 weeks or longer ([US Food and Drug Administration, 2017]), approximately 50%–70% of Victoza-treated patients were tested for anti-liraglutide antibodies at the end of treatment. Approximately 8.6% of the liraglutide-treated group were detected with low-titer (no serum concentration dilution required) anti-liraglutide antibodies. When comparing all antibody-positive and all antibody-negative patients, antibody formation wa ...

dipeptidyl dipeptidase-4 = details: endogenous GLP-1, easily degraded by dipeptidyl dipeptidase-4; ref Drucker, 2003; cited from earlier work
Text: GLP-1 is an endogenous incretin hormone secreted primarily by intestinal L-cells ([Drucker, 2006]; [Baggio and Drucker, 2007]; [Müller et al., 2019]), which is involved in the regulation of glucose homeostasis through GLP-1R, a G-protein-coupled receptor, in a variety of ways, mainly including stimulation of insulin secretion in a glucose-dependent manner, inhibition of glucagon secretion, reduction of appetite, slowing down of gastric emptying ([Drucker and Nauck, 2006]; [Hare et al., 2010]), enhancement of insulin sensitivity ([Fernández-Millán et al., 2016]; [Capuani et al., 2018]; [Jiang e ...

[6] = healthy Chinese subjects, N = 36
[7] = single dose 0.6 mg subcutaneously

## CCCCCCCCCCCCCCCC(=O)N[C@@H](CCC(=O)NCCCC[C@H](NC(=O)[C@H](C)NC(=O)[C@H](C)NC(=O)[C@H](CCC(N)=O)NC(=O)CNC(=O)[C@H](CCC(=O)O)NC(=O)[C@H](CC(C)C)NC(=O)[C@H](Cc1ccc(O)cc1)NC(=O)[C@H](CO)NC(=O)[C@H](CO)NC(=O)[C@@H](NC(=O)[C@H](CC(=O)O)NC(=O)[C@H](CO)NC(=O)[C@@H](NC(=O)[C@H](Cc1ccccc1)NC(=O)[C@@H](NC(=O)CNC(=O)[C@H](CCC(=O)O)NC(=O)[C@H](C)NC(=O)[C@@H](N)Cc1cnc[nH]1)[C@@H](C)O)[C@@H](C)O)C(C)C)C(=O)N[C@@H](CCC(=O)O)C(=O)N[C@@H](Cc1ccccc1)C(=O)N[C@H](C(=O)N[C@@H](C)C(=O)N[C@@H](Cc1c[nH]c2ccccc12)C(=O)N[C@@H](CC(C)C)C(=O)N[C@H](C(=O)N[C@@H](CCCNC(=N)N)C(=O)NCC(=O)N[C@@H](CCCNC(=N)N)C(=O)NCC(=O)O)C(C)C)[C@@H](C)CC)C(=O)O [Liraglutide, liraglutide]
[1]; human, in vivo, sc, healthy Chinese subjects, plasma LC-MS/MS, non-compartmental, mean ± SD (%CV), read-out: Vz/F (apparent volume of distribution)
  Vd/F: 8.34 L
[1]; test liraglutide injection versus Victoza, equivalence interval 80.00%–125.00%, 90% CI 99.54–108.10
  Geometric mean ratio (T/R) of Cmax: 103.73%
[1]; test liraglutide injection versus Victoza, equivalence interval 80.00%–125.00%, 90% CI 99.85–106.26
  Geometric mean ratio (T/R) of AUC0-t: 103.01%
[1]; test liraglutide injection versus Victoza, equivalence interval 80.00%–125.00%, 90% CI 100.04–106.11
  Geometric mean ratio (T/R) of AUC0-∞: 103.03%
[2]; healthy Chinese subjects
  Tolerability (in words): well tolerated
[2]; [6]
  AEs leading to exit, Instance: 0
  AEs of grade 1 and above, Instance: 0
  Blurred right vision, Instance: 0
  Elevated blood glucose, Instance: 0
  Elevated free thyroxine, Instance: 1
  Elevated hypersensitivity thyroid-stimulating hormone, Instance: 1
  Hyperuricemia, Instance: 1
  Increased alanine aminotransferase, Instance: 0
  Increased urine leukocytes, Instance: 0
  Leukocyte increase, Instance: 1
  Serious AEs, Instance: 0
[2]; proportion of subjects, N = 36
  AEs leading to exit, Number of cases (n%): 0%
  AEs of grade 1 and above, Number of cases (n%): 0%
  Blurred right vision, Number of cases (n%): 0%
  Elevated blood glucose, Number of cases (n%): 0%
  Elevated free thyroxine, Number of cases (n%): 2.78%
  Elevated hypersensitivity thyroid-stimulating hormone, Number of cases (n%): 2.78%
  Hyperuricemia, Number of cases (n%): 2.78%
  Increased alanine aminotransferase, Number of cases (n%): 0%
  Increased urine leukocytes, Number of cases (n%): 0%
  Leukocyte increase, Number of cases (n%): 2.78%
  Serious AEs, Number of cases (n%): 0%
  Total AEs, Number of cases (n%): 8.33%
[2]; 36 subjects per group
  Number of adverse reactions / AEs: four
  Number of possible related adverse reactions (times): three
  Subjects with adverse reactions (proportion): 8.33%
  Subjects with adverse reactions / AEs (number of subjects): Three
  Subjects with possible related adverse reactions (number of subjects): two
  Subjects with possible related adverse reactions (proportion): 5.56%
[3]; aqueous mixture of formic acid and acetonitrile
  Short-term stability (ULOQ) of the working solution: 146.9 h
[3]; prepared plasma samples
  Stability of the biological samples after preparation: 21.5 h
[4]; [7]
  Mean apparent volume of distribution: approximately 13 L
  Mean peak (Cmax): 35 ng/mL
  Time to maximum concentration after dosing: 8 to 12 h
  Total exposure (AUC): 960 ng·h/mL
[4]; single dose, subcutaneous administration
  Mean apparent clearance: approximately 1.2 L/h
[5]; five clinical trials of 26 weeks or longer, end of treatment
  Proportion of treated group with low-titer anti-liraglutide antibodies: Approximately 8.6%
[5]; patients, five double-blind clinical trials of 26 weeks or longer, dose-related
  Incidence of gastrointestinal adverse reactions: 41%

## GLP-1: Endogenous incretin hormone secreted primarily by intestinal L-cells
Dipeptidyl dipeptidase-4
  Effective half-life: only a few minutes
